In experiment [1] the target is MAP kinase-activated protein kinase 3 (Homo sapiens) (UniProt Q16644). The experiment is described as follows: Inhibition of human MAPKAPK3 using KKLNRTLSVA as substrate at 1 uM in presence of 32P-ATP by Hotspot assay relative to control; values are per cent of control.
In experiment [2] the target is Tyrosine-protein kinase ABL1 (Homo sapiens) (UniProt P00519). The experiment is described as follows: Inhibition of human ABL1 using EAIYAAPFAKKK as substrate at 1 uM in presence of 32P-ATP by Hotspot assay relative to control; values are per cent of control.
Sequence of Tyrosine-protein kinase ABL1 (Homo sapiens) (P00519 whole entry): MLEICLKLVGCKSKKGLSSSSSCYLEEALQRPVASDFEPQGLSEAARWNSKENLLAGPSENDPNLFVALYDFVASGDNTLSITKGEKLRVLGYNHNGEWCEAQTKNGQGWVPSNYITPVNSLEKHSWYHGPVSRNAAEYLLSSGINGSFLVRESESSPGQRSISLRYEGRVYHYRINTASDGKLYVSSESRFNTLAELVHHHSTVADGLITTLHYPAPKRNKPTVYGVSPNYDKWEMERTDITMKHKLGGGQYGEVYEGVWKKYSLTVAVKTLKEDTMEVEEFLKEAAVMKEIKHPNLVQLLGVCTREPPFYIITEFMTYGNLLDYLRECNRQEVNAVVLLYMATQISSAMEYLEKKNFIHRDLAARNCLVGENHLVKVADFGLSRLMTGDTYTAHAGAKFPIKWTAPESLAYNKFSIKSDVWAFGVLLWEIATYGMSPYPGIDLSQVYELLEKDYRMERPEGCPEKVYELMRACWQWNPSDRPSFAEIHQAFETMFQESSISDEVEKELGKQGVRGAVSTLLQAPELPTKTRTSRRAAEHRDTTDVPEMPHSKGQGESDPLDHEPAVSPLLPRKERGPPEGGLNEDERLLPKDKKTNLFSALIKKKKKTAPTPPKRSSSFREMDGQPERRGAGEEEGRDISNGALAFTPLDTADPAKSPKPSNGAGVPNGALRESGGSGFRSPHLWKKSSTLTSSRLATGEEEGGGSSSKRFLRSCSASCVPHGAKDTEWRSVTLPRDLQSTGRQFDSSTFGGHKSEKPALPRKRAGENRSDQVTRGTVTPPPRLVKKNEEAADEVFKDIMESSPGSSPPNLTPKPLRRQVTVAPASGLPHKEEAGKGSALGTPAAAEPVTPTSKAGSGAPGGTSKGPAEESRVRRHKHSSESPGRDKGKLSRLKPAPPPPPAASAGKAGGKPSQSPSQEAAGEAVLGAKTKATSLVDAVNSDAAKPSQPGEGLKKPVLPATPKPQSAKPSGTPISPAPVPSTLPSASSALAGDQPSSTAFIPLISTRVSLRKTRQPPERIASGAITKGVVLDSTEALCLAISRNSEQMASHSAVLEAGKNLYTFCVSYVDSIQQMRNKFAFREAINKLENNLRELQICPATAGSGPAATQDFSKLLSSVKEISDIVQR
Experiment [3] has as its target T1, Ephrin type-A receptor 8 (Homo sapiens) (UniProt P29322).
T1 sequence (whole entry): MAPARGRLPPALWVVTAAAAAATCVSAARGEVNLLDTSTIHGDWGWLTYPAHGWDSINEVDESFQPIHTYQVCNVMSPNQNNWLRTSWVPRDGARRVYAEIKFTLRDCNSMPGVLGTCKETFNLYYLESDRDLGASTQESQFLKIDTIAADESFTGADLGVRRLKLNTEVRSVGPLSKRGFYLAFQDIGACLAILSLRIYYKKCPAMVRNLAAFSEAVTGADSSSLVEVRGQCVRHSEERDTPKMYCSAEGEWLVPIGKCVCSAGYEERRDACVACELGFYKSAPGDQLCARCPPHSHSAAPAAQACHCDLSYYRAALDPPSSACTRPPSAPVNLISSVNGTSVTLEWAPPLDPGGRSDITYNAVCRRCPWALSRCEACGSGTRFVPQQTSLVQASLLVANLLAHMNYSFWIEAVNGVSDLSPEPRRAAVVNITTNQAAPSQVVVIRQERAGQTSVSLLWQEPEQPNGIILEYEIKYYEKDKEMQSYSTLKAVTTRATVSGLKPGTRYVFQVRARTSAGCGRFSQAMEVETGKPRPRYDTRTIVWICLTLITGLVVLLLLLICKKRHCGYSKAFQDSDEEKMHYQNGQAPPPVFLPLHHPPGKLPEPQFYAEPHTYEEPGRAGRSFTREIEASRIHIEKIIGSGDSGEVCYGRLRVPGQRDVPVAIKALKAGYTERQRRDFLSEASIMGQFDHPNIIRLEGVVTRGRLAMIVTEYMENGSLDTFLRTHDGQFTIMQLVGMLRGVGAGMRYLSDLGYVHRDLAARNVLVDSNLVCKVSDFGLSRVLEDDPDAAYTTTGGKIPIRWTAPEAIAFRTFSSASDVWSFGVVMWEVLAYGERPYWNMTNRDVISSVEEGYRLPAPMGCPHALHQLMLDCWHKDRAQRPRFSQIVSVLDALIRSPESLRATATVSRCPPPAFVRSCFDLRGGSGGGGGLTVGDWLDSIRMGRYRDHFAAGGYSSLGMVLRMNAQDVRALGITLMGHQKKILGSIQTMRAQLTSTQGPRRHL
The experiment is described as follows: Inhibition of human EPHA8 using poly[Glu:Tyr] (4:1) as substrate at 1 uM in presence of 32P-ATP by Hotspot assay relative to control; values are per cent of control.

The target in experiment [4] is Mitogen-activated protein kinase kinase kinase 10 (Homo sapiens) (UniProt Q02779). The experiment is described as follows: Residual activity of human MLK2/MAP3K10 using myelin basic protein as substrate at 1 uM in presence of 32P-ATP by Hotspot assay relative to control.
Experiment [5] has as its target Vascular endothelial growth factor receptor 1 (Homo sapiens) (UniProt P17948). The experiment is described as follows: Inhibition of human FLT1/VEGFR1 using poly[Glu:Tyr] (4:1) as substrate at 1 uM in presence of 32P-ATP by Hotspot assay relative to control; values are per cent of control.
The target of experiment [6] is Serine/threonine-protein kinase PAK 1 (Homo sapiens) (UniProt Q13153). The experiment is described as follows: Inhibition of human PAK1 using RRRLSFAEPG as substrate at 1 uM in presence of 32P-ATP by Hotspot assay relative to control; values are per cent of control.
Sequence of Serine/threonine-protein kinase PAK 1 (Homo sapiens) (Q13153 whole entry): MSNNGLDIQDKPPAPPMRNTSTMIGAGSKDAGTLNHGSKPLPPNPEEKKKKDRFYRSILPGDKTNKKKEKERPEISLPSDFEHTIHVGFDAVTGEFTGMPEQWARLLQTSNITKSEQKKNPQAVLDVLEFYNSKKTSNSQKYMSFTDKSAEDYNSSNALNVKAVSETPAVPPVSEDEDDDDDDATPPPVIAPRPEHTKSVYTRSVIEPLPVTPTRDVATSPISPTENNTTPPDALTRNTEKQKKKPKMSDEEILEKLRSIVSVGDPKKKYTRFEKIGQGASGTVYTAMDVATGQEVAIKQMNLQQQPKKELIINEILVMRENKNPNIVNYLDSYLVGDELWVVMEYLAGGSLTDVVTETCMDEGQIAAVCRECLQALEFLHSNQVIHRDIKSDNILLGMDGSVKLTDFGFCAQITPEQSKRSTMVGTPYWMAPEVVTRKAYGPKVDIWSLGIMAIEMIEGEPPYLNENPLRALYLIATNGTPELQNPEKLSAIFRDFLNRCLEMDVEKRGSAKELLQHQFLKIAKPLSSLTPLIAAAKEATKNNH
Experiment [7] deals with Mitogen-activated protein kinase 1 (Homo sapiens) (UniProt P28482). The experiment is described as follows: Inhibition of human ERK2/MAPK1 using myelin basic protein as substrate at 1 uM in presence of 32P-ATP by Hotspot assay relative to control; values are per cent of control.
Sequence of Mitogen-activated protein kinase 1 (Homo sapiens) (P28482 whole entry): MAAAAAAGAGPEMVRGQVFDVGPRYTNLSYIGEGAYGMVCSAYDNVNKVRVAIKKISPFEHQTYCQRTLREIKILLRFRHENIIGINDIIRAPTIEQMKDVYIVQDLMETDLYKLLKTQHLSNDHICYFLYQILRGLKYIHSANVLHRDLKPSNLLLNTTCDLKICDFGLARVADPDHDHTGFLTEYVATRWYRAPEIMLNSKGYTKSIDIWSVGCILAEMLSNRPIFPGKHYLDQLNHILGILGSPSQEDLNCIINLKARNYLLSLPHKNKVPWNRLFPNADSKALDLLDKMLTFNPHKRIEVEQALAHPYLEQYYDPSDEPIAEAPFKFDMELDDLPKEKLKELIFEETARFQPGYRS
In experiment [8] the target is Ephrin type-A receptor 4 (Homo sapiens) (UniProt P54764). The experiment is described as follows: Inhibition of human EPHA4 using poly[Glu:Tyr] (4:1) as substrate at 1 uM in presence of 32P-ATP by Hotspot assay relative to control; values are per cent of control.
Sequence of Ephrin type-A receptor 4 (Homo sapiens) (P54764 whole entry): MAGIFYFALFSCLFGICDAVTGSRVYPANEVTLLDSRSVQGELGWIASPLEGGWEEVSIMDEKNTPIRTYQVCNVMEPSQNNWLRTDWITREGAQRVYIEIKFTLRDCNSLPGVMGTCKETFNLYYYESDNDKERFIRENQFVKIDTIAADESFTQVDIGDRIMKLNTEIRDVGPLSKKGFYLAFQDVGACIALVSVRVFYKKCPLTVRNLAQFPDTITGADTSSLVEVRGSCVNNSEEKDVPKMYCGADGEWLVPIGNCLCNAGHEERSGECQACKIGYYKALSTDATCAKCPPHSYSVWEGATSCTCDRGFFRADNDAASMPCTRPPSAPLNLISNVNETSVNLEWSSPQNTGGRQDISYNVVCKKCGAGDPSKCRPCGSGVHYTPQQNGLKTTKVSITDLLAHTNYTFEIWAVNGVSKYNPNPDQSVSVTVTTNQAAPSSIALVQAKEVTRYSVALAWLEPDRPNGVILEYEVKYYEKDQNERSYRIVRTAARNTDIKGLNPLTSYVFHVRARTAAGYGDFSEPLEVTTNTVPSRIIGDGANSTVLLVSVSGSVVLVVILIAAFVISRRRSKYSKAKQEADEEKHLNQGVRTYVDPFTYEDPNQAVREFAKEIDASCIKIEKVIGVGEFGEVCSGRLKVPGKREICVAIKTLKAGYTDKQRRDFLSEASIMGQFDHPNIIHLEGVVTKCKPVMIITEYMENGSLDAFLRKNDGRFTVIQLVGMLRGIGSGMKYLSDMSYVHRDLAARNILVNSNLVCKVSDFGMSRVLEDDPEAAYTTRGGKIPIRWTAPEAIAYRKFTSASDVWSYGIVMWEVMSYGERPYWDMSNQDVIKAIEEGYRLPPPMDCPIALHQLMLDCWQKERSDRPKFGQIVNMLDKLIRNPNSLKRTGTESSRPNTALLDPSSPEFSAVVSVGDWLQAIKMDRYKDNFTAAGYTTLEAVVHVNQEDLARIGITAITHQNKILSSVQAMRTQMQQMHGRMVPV
For experiment [9], the target named is T2, Serine/threonine-protein kinase Sgk1 (Homo sapiens) (UniProt O00141).
T2 sequence (whole entry): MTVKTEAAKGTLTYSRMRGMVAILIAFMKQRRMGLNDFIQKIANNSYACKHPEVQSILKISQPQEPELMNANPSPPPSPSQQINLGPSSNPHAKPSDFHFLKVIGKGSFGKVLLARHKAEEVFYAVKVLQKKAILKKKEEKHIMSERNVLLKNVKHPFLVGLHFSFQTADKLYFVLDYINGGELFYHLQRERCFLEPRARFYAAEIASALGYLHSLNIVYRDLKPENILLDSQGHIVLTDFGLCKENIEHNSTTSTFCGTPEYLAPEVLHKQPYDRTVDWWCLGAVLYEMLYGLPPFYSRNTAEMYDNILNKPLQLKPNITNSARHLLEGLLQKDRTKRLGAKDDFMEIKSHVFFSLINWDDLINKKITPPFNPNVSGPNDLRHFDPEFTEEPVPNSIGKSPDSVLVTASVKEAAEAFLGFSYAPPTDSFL
The experiment is described as follows: Inhibition of human SGK1 using KGSGSGRPRTSSFAEG as substrate at 1 uM in presence of 32P-ATP by Hotspot assay relative to control; values are per cent of control.

Experiment [10] has as its target Casein kinase I isoform gamma-3 (Homo sapiens) (UniProt Q9Y6M4). The experiment is described as follows: Inhibition of human CK1g3 using KRRRAL[pS]VASLPGL as substrate at 1 uM in presence of 32P-ATP by Hotspot assay relative to control; values are per cent of control.
Experiment [11] has as its target CDK3/Cyclin E (Homo sapiens) (UniProt P24864+Q00526). The experiment is described as follows: Inhibition of human CDK3/cyclin E using RB Protein as substrate at 1 uM in presence of 32P-ATP by Hotspot assay relative to control; values are per cent of control.
In experiment [12] the target is Non-receptor tyrosine-protein kinase TYK2 (Homo sapiens) (UniProt P29597). The experiment is described as follows: Inhibition of human TYK2 using KKSRGDYMTMQIG as substrate at 1 uM in presence of 32P-ATP by Hotspot assay relative to control; values are per cent of control.

Residual activity data for 3 compounds are collected here from ChEMBL document CHEMBL5649166, “RIP3 induces apoptosis independent of pronecrotic kinase activity” (Mol Cell, 2014).

Sequence of CDK3/Cyclin E (Homo sapiens) (P24864 whole entry, looked up): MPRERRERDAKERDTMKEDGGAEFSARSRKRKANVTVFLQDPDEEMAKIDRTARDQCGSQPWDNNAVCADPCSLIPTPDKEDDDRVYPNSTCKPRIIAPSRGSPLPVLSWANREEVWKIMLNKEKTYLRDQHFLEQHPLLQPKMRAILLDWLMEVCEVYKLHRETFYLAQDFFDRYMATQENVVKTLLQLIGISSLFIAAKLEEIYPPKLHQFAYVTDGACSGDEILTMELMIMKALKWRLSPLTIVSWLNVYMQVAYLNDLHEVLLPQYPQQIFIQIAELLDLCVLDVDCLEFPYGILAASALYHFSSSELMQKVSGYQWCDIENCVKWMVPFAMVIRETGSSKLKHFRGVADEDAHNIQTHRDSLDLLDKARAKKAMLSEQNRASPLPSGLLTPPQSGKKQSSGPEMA
Sequence of CDK3/Cyclin E (Homo sapiens) (Q00526 whole entry, looked up): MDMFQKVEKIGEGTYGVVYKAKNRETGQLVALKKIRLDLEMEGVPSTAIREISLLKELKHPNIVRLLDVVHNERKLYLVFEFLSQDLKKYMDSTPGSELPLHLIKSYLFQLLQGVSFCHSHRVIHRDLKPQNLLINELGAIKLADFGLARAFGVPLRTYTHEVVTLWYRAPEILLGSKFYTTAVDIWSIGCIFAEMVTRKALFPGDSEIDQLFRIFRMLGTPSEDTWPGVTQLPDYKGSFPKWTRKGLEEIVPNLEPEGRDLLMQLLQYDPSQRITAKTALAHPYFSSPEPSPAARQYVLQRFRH
Sequence of Vascular endothelial growth factor receptor 1 (Homo sapiens) (P17948 whole entry): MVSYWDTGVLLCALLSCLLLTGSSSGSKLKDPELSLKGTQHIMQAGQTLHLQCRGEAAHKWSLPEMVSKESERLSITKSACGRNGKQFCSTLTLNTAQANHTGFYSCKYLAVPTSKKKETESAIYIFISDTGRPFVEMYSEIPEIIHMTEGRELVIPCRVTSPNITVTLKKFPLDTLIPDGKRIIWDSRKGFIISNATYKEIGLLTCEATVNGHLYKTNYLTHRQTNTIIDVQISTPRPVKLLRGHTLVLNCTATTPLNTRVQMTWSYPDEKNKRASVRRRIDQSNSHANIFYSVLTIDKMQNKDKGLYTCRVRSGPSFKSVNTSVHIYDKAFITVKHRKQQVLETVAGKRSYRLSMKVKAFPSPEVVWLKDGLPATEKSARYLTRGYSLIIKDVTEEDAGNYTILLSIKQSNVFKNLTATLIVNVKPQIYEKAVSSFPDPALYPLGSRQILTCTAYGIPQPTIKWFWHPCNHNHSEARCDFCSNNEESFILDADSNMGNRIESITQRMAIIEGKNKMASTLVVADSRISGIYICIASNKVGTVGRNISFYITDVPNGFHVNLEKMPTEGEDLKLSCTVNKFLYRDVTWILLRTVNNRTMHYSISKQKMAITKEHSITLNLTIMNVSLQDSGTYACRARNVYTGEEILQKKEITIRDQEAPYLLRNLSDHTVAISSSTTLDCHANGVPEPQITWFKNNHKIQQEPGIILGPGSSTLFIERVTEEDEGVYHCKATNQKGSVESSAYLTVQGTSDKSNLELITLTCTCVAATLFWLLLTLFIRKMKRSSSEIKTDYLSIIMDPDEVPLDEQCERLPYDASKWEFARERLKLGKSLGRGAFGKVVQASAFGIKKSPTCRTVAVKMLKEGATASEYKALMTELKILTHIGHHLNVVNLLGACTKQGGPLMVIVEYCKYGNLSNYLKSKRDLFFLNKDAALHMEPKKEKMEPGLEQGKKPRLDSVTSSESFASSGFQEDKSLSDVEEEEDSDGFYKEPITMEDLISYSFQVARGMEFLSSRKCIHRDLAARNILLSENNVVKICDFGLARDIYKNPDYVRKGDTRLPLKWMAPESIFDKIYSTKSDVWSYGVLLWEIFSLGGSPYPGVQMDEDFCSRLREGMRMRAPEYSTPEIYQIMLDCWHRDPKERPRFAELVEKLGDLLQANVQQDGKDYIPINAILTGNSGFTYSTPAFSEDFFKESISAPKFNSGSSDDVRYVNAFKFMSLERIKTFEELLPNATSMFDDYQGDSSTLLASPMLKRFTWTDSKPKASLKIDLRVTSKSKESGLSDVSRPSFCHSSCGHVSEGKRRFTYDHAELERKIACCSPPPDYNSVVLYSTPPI

With `CNC(=O)c1ccc2c(c1)ncn2-c1ccc(CC(=O)OC(C)(C)C)cc1`, the residual activity in experiment [1] came to 98%; in experiment [2], 92.7%; in experiment [3], 96.7%; in experiment [4] it was 90.9%; in [5], 72.5%; in experiment [6], 95.9%. Further, the residual activity in experiment [7] worked out at 99.8%; in experiment [8], 95.5%; in [9] it was 94.2%; in experiment [10], 97.5%; in experiment [11], 92.4%; in experiment [12], 103%.
In the case of `Cc1cc(-c2cnc(N)c3c(-c4ccc5scnc5c4)csc23)n(C)n1`, the residual activity in experiment [1] stood at 90.7%; in [2] it was 6.1%; in experiment [3], 62.7%; in [4], 97.5%; in experiment [5] it was 96.8%; in experiment [6], 93.8%. Moreover, the residual activity in [7] amounted to 109%; in experiment [8] it was 48.9%; in experiment [9], 94.2%; in experiment [10], 88.2%; in [11], 87.6%; in [12], 99.4%.
In the case of `CC(C)S(=O)(=O)c1ccc2nccc(Nc3ccc4scnc4c3)c2c1`, the residual activity in [1] was 98.9%; in experiment [2], 25.8%; in experiment [3], 42.8%; in [4], 84.5%; in experiment [5], 85%; in experiment [6], 96.5%. Also, the residual activity was determined as 94.6% in [7]; 70.9% in experiment [8]; 95.7% in experiment [9]; 103% in experiment [10]; 88.5% in experiment [11]; 101% in [12].
